From patent US20150011466A1, “APJ Receptor Compounds” (priority 2012, published 2015)
Where a SMILES comes first, the peptide text is derived from it. [ ]: non-standard residue; d: D form. The star is where a group is joined. Palmitoyl = CCCCCCCCCCCCCCCC(=O)*

Molecular target: T1, APJ receptor (Homo sapiens, UniProt P35414)
T1 construct: expressed in transfected cells; host or cells: Human TRex cells (doxycycline-inducible)
T1 sequence (P35414 1-380): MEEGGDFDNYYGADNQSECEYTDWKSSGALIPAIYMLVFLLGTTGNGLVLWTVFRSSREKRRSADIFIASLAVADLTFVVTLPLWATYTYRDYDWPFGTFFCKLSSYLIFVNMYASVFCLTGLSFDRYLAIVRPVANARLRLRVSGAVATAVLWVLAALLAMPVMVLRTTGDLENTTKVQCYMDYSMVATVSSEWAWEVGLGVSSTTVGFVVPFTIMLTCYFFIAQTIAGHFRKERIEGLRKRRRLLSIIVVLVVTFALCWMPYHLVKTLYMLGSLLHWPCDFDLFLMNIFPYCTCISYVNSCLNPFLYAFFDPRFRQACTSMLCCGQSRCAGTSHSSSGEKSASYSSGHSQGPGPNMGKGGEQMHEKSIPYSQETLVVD
Experiment: HTRF cAMP assay, inhibition of NKH477 stimulated cAMP in Human TRex cells expressing APJ upon doxycycline induction (APJ-hTREX)
Assay type: cell-based
Conditions: read-out: % IA (@ 300 nM)
From the text: HTRF (homogeneous time resolved fluorescence) is a technology developed by Cisbio Bioassays based on TR-FRET (time-resolved fluorescence resonance energy transfer). Cisbio Bioassays has developed a wide selection of HTRF-based assays compatible with whole cells, thereby enabling functional assays to run under more physiological conditions. The IP-One assays are competitive immunoassays using cryptate-labeled anti-IP1 monoclonal antibody and d2-labeled IP1. IP1 is a relatively stable downstream metabolite of IP3, and accumulates in cells following Gq receptor activation.
cAMP kits based on a competitive immunoassay using cryptate-labeled anti-cAMP antibody and d2-labeled cAMP were used to assay the effects of APJ compounds of the present invention. […] Cells are treated with […] doxycycline and seeded in all white 96 well plates @ 40 k/well overnight.

SMILES | percent intrinsic activity at 0.3 µM [%]
CCCCCCCCCCCCCCCC(=O)N[C@H](C(=O)N[C@@H](Cc1ccccc1)C(=O)N[C@@H](Cc1ccccc1)C(=O)N[C@@H](CCCNC(=N)N)C(=O)N[C@@H](CO)C(=O)N[C@@H](CO)C(=O)N[C@@H](CCC(=O)O)C(=O)N[C@H](CCCCN)C(=O)N[C@@H](CCCNC(=N)N)C(=O)N[C@@H](CCCNC(=N)N)C(=O)N[C@@H](CO)C(=O)N[C@@H](C)C(=O)N[C@@H](CC(=O)O)C(=O)N[C@H](C(=O)N[C@@H](Cc1ccccc1)C(=O)N[C@H](C(N)=O)[C@@H](C)CC)[C@@H](C)CC)[C@@H](C)O [Compound 2] (Palmitoyl-TFFRSSE[dK]RRSADIFI-NH2) | 59
CCCCCCCCCCCCCCCC(=O)N[C@@H](Cc1c[nH]cn1)C(=O)N[C@H](C(=O)N[C@@H](Cc1ccccc1)C(=O)N[C@@H](CCCNC(=N)N)C(=O)N[C@@H](CO)C(=O)N[C@@H](CO)C(=O)N[C@@H](CCC(=O)O)C(=O)N[C@H](CCCCN)C(=O)N[C@@H](CCCNC(=N)N)C(=O)N[C@@H](CCCNC(=N)N)C(=O)N[C@@H](CO)C(=O)N[C@@H](C)C(=O)N[C@@H](CC(=O)O)C(=O)N[C@H](C(=O)N[C@@H](Cc1ccccc1)C(=O)N[C@H](C(N)=O)[C@@H](C)CC)[C@@H](C)CC)C(C)C [Compound 7] (Palmitoyl-HVFRSSE[dK]RRSADIFI-NH2) | 50
CCCCCCCCCCCCCCCC(=O)N[C@H](C(=O)N[C@@H](Cc1c[nH]cn1)C(=O)N[C@@H](Cc1ccccc1)C(=O)N[C@@H](CCCNC(=N)N)C(=O)N[C@@H](CO)C(=O)N[C@@H](CO)C(=O)N[C@@H](CCC(=O)O)C(=O)N[C@H](CCCCN)C(=O)N[C@@H](CCCNC(=N)N)C(=O)N[C@@H](CCCNC(=N)N)C(=O)N[C@@H](CO)C(=O)N[C@@H](C)C(=O)N[C@@H](CC(=O)O)C(=O)N[C@H](C(=O)N[C@@H](Cc1ccccc1)C(=O)N[C@H](C(N)=O)[C@@H](C)CC)[C@@H](C)CC)[C@@H](C)O [Compound 8] (Palmitoyl-THFRSSE[dK]RRSADIFI-NH2) | 63
CCCCCCCCCCCCCCCC(=O)N[C@H](C(=O)N[C@H](C(=O)N[C@@H](Cc1ccccc1)C(=O)N[C@@H](Cc1c[nH]cn1)C(=O)N[C@@H](CO)C(=O)N[C@@H](CO)C(=O)N[C@@H](CCC(=O)O)C(=O)N[C@H](CCCCN)C(=O)N[C@@H](CCCNC(=N)N)C(=O)N[C@@H](CCCNC(=N)N)C(=O)N[C@@H](CO)C(=O)N[C@@H](C)C(=O)N[C@@H](CC(=O)O)C(=O)N[C@H](C(=O)N[C@@H](Cc1ccccc1)C(=O)N[C@H](C(N)=O)[C@@H](C)CC)[C@@H](C)CC)C(C)C)[C@@H](C)O [Compound 10] (Palmitoyl-TVFHSSE[dK]RRSADIFI-NH2) | 55
CCCCCCCCCCCCCCCC(=O)N[C@H](C(=O)N[C@H](C(=O)N[C@@H](Cc1ccccc1)C(=O)N[C@@H](CCCNC(=N)N)C(=O)N[C@@H](CO)C(=O)N[C@@H](CO)C(=O)N[C@@H](Cc1c[nH]cn1)C(=O)N[C@H](CCCCN)C(=O)N[C@@H](CCCNC(=N)N)C(=O)N[C@@H](CCCNC(=N)N)C(=O)N[C@@H](CO)C(=O)N[C@@H](C)C(=O)N[C@@H](CC(=O)O)C(=O)N[C@H](C(=O)N[C@@H](Cc1ccccc1)C(=O)N[C@H](C(N)=O)[C@@H](C)CC)[C@@H](C)CC)C(C)C)[C@@H](C)O [Compound 12] (Palmitoyl-TVFRSSH[dK]RRSADIFI-NH2) | 73
CCCCCCCCCCCCCCCC(=O)N[C@H](C(=O)N[C@H](C(=O)N[C@@H](Cc1ccccc1)C(=O)N[C@@H](CCCNC(=N)N)C(=O)N[C@@H](CO)C(=O)N[C@@H](CO)C(=O)N[C@@H](CCC(=O)O)C(=O)N[C@H](CCCCN)C(=O)N[C@@H](Cc1c[nH]cn1)C(=O)N[C@@H](CCCNC(=N)N)C(=O)N[C@@H](CO)C(=O)N[C@@H](C)C(=O)N[C@@H](CC(=O)O)C(=O)N[C@H](C(=O)N[C@@H](Cc1ccccc1)C(=O)N[C@H](C(N)=O)[C@@H](C)CC)[C@@H](C)CC)C(C)C)[C@@H](C)O [Compound 13] (Palmitoyl-TVFRSSE[dK]HRSADIFI-NH2) | 56
CCCCCCCCCCCCCCCC(=O)N[C@H](C(=O)N[C@H](C(=O)N[C@@H](Cc1ccccc1)C(=O)N[C@@H](CCC(N)=O)C(=O)N[C@@H](CO)C(=O)N[C@@H](CO)C(=O)N[C@@H](CCC(=O)O)C(=O)N[C@H](CCCCN)C(=O)N[C@@H](CCCNC(=N)N)C(=O)N[C@@H](CCCNC(=N)N)C(=O)N[C@@H](CO)C(=O)N[C@@H](C)C(=O)N[C@@H](CC(=O)O)C(=O)N[C@H](C(=O)N[C@@H](Cc1ccccc1)C(=O)N[C@H](C(N)=O)[C@@H](C)CC)[C@@H](C)CC)C(C)C)[C@@H](C)O [Compound 22] (Palmitoyl-TVFQSSE[dK]RRSADIFI-NH2) | 59
CCCCCCCCCCCCCCCC(=O)N[C@H](C(=O)N[C@H](C(=O)N[C@@H](Cc1ccccc1)C(=O)N[C@@H](CCCNC(=N)N)C(=O)N[C@@H](CCC(N)=O)C(=O)N[C@@H](CO)C(=O)N[C@@H](CCC(=O)O)C(=O)N[C@H](CCCCN)C(=O)N[C@@H](CCCNC(=N)N)C(=O)N[C@@H](CCCNC(=N)N)C(=O)N[C@@H](CO)C(=O)N[C@@H](C)C(=O)N[C@@H](CC(=O)O)C(=O)N[C@H](C(=O)N[C@@H](Cc1ccccc1)C(=O)N[C@H](C(N)=O)[C@@H](C)CC)[C@@H](C)CC)C(C)C)[C@@H](C)O [Compound 23] (Palmitoyl-TVFRQSE[dK]RRSADIFI-NH2) | 55
CCCCCCCCCCCCCCCC(=O)N[C@H](C(=O)N[C@H](C(=O)N[C@@H](Cc1ccccc1)C(=O)N[C@@H](CCCNC(=N)N)C(=O)N[C@@H](CO)C(=O)N[C@@H](CO)C(=O)N[C@@H](CCC(N)=O)C(=O)N[C@H](CCCCN)C(=O)N[C@@H](CCCNC(=N)N)C(=O)N[C@@H](CCCNC(=N)N)C(=O)N[C@@H](CO)C(=O)N[C@@H](C)C(=O)N[C@@H](CC(=O)O)C(=O)N[C@H](C(=O)N[C@@H](Cc1ccccc1)C(=O)N[C@H](C(N)=O)[C@@H](C)CC)[C@@H](C)CC)C(C)C)[C@@H](C)O [Compound 25] (Palmitoyl-TVFRSSQ[dK]RRSADIFI-NH2) | 45
CCCCCCCCCCCCCCCC(=O)N[C@H](C(=O)N[C@@H](CC(=O)O)C(=O)N[C@@H](Cc1ccccc1)C(=O)N[C@@H](CCCNC(=N)N)C(=O)N[C@@H](CO)C(=O)N[C@@H](CO)C(=O)N[C@@H](CCC(=O)O)C(=O)N[C@H](CCCCN)C(=O)N[C@@H](CCCNC(=N)N)C(=O)N[C@@H](CCCNC(=N)N)C(=O)N[C@@H](CO)C(=O)N[C@@H](C)C(=O)N[C@@H](CC(=O)O)C(=O)N[C@H](C(=O)N[C@@H](Cc1ccccc1)C(=O)N[C@H](C(N)=O)[C@@H](C)CC)[C@@H](C)CC)[C@@H](C)O [Compound 34] (Palmitoyl-TDFRSSE[dK]RRSADIFI-NH2) | 44
CCCCCCCCCCCCCCCC(=O)N[C@H](C(=O)N[C@H](C(=O)N[C@@H](Cc1ccccc1)C(=O)N[C@@H](CCCNC(=N)N)C(=O)N[C@@H](CC(=O)O)C(=O)N[C@@H](CO)C(=O)N[C@@H](CCC(=O)O)C(=O)N[C@H](CCCCN)C(=O)N[C@@H](CCCNC(=N)N)C(=O)N[C@@H](CCCNC(=N)N)C(=O)N[C@@H](CO)C(=O)N[C@@H](C)C(=O)N[C@@H](CC(=O)O)C(=O)N[C@H](C(=O)N[C@@H](Cc1ccccc1)C(=O)N[C@H](C(N)=O)[C@@H](C)CC)[C@@H](C)CC)C(C)C)[C@@H](C)O [Compound 36] (Palmitoyl-TVFRDSE[dK]RRSADIFI-NH2) | 49
CCCCCCCCCCCCCCCC(=O)N[C@H](C(=O)N[C@H](C(=O)N[C@@H](Cc1ccccc1)C(=O)N[C@@H](CCCNC(=N)N)C(=O)N[C@@H](CO)C(=O)N[C@@H](CC(=O)O)C(=O)N[C@@H](CCC(=O)O)C(=O)N[C@H](CCCCN)C(=O)N[C@@H](CCCNC(=N)N)C(=O)N[C@@H](CCCNC(=N)N)C(=O)N[C@@H](CO)C(=O)N[C@@H](C)C(=O)N[C@@H](CC(=O)O)C(=O)N[C@H](C(=O)N[C@@H](Cc1ccccc1)C(=O)N[C@H](C(N)=O)[C@@H](C)CC)[C@@H](C)CC)C(C)C)[C@@H](C)O [Compound 37] (Palmitoyl-TVFRSDE[dK]RRSADIFI-NH2) | 50
CCCCCCCCCCCCCCCC(=O)N1CCC[C@H]1C(=O)N[C@H](C(=O)N[C@@H](Cc1ccccc1)C(=O)N[C@@H](CCCNC(=N)N)C(=O)N[C@@H](CO)C(=O)N[C@@H](CO)C(=O)N[C@@H](CCC(=O)O)C(=O)N[C@H](CCCCN)C(=O)N[C@@H](CCCNC(=N)N)C(=O)N[C@@H](CCCNC(=N)N)C(=O)N[C@@H](CO)C(=O)N[C@@H](C)C(=O)N[C@@H](CC(=O)O)C(=O)N[C@H](C(=O)N[C@@H](Cc1ccccc1)C(=O)N[C@H](C(N)=O)[C@@H](C)CC)[C@@H](C)CC)C(C)C [Compound 42] (Palmitoyl-PVFRSSE[dK]RRSADIFI-NH2) | 83
CCCCCCCCCCCCCCCC(=O)N[C@H](C(=O)N1CCC[C@H]1C(=O)N[C@@H](Cc1ccccc1)C(=O)N[C@@H](CCCNC(=N)N)C(=O)N[C@@H](CO)C(=O)N[C@@H](CO)C(=O)N[C@@H](CCC(=O)O)C(=O)N[C@H](CCCCN)C(=O)N[C@@H](CCCNC(=N)N)C(=O)N[C@@H](CCCNC(=N)N)C(=O)N[C@@H](CO)C(=O)N[C@@H](C)C(=O)N[C@@H](CC(=O)O)C(=O)N[C@H](C(=O)N[C@@H](Cc1ccccc1)C(=O)N[C@H](C(N)=O)[C@@H](C)CC)[C@@H](C)CC)[C@@H](C)O [Compound 43] (Palmitoyl-TPFRSSE[dK]RRSADIFI-NH2) | 39
